Legend:
recombinant human PEPD = recombinant human PEPD (Homo sapiens (Human), UniProt P12955); experiment: PEPD substrate assay (Ala-Pro cleavage, L-alanine assay kit); format: biochemical; conditions: for IC50: 50 nM recombinant human PEPD, Ala-Pro 40 μM, 25° C.
Experimental: Protein purification. Human prolidase (PEPD) was generated and purified. XPNPEP1 in pET15-b containing a 6× His tag was expressed in E. coli Rosetta DE3 cells.
Substrate assays. For the PEPD assay, a solution of substrate (Ala-Pro) was prepared in DMSO. 24 μL of 50 nM recombinant human PEPD were added to a 384-well, black, clear-bottom plate (Corning) with 1 μL dipeptide Ala-Pro (final conc. 40 μM). […] For the AMC reporter assays, experiments were performed with cell lysates. 5 μL solution of substrate (2.5 mM Ala-AMC) was added the mixture of 10 μL HEK293T cell lysates (2.5 mg/ml) and 10 μL of indicated compounds in a 384-well, black, clear-bottom plate (Corning) to initiate the reaction. Substrate cleavage was measured as increasing fluorescence signal (Ex/Em: 380/460 nm) recorded at 25° C. for 20 mins. […] H-Lys(abz)-Pro-Pro-pNA substrate was added to a final concentration of 100 μM, and fluorescence was monitored (Ex/Em: 320/410) for 60 mins.

[1] = Stability in cell culture supernatants; format: in vitro ADME
XPNPEP1 = XPNPEP1 (Homo sapiens (Human), UniProt Q9NQW7); experiment: XPNPEP1 substrate assay (H-Lys(abz)-Pro-Pro-pNA); format: biochemical; conditions: for IC50: XPNPEP1 3.5 nM, substrate 100 μM, 60 mins
Experimental: Protein purification. Human prolidase (PEPD) was generated and purified. XPNPEP1 in pET15-b containing a 6× His tag was expressed in E. coli Rosetta DE3 cells. Cells were induced with IPTG for 16 h at 37° C., pelleted and lysed in buffer A (20 mM Tris-HCl (pH 7.9), 500 mM NaCl, and 10% (v/v) glycerol) by sonication. Affinity purification chromatography was performed using TALON resin and according to previously published protocols (Li et al., 2008).
Substrate assays. For the PEPD assay, a solution of substrate (Ala-Pro) was prepared in DMSO. 24 μL of 50 nM recombinant human PEPD were added to a 384-well, black, clear-bottom plate (Corning) with 1 μL dipeptide Ala-Pro (final conc. 40 μM). Alanine liberated was measured as increasing fluorescence signal (Resorufin, Ex/Em: 535/587 nm) recorded at 25° C. using an L-alanine assay kit (Abcam, ab83394) at 25° C. according to manufacturer's instructions. For the AMC reporter assays, experiments were performed with cell lysates. 5 μL solution of substrate (2.5 mM Ala-AMC) was added the mixture of 10 μL HEK293T cell lysates (2.5 mg/ml) and 10 μL of indicated compounds in a 384-well, black, clear-bottom plate (Corning) to initiate the reaction. Substrate cleavage was measured as increasing fluorescence signal (Ex/Em: 380/460 nm) recorded at 25° C. for 20 mins. For XPNPEP1 enzymes (XPNPEP1 3.5 nM) were plated on a black 384-well clear bottom plate and treated with the indicated doses of compounds. H-Lys(abz)-Pro-Pro-pNA substrate was added to a final concentration of 100 μM, and fluorescence was monitored (Ex/Em: 320/410) for 60 mins.

MV4;11 CASP1-/- cells = experiment: CellTiter-Glo cell viability, CASP1-/- MV4;11 cells; format: cell-based; conditions: 24 h, CTG; for CASP1-independent cell death: WT and CASP1-/- MV4;11 cells
Experimental: Cloning. CASP1^−/− MV4;11 cells^12; CARD8^−/− MV4;11, THP-1, OCI-AML2 cells^14; DPP8/9^−/− THP-1^12; PEPD^−/−, XPNPEP1^−/−, PEPD XPNPEP1^−/− THP-1 cells were generated. Plasmids for CARD8 variants, CASP1, GSDMD, dTAG-CARD8^ZUC were cloned as described previously (Hollingsworth et al., 2021; Johnson et al., 2018; Sharif et al., 2021).
(§1) CellTiter-Glo cell viability and CytoTox-Fluor cell death assays. Cells were plated (2,000 cells per well) in white, 384-well clear-bottom plates (Corning) using an EL406 Microplate Washer/Dispenser (BioTek) in 25 μL final volume of medium. To the cell plates were added compounds at different concentrations using a pintool (CyBio) and the plates were allowed to incubate in the incubator. After incubation for indicated times, CytoTox-Fluor reagent (Promega, G9262) was added according to the manufacturer's protocol. The assay plates were then incubated for another 30 min before fluorescence was recorded using a Cytation 5 Cell Imaging Multi-Mode Reader (BioTek). Next, CellTiter-Glo reagent (Promega, G7573) was subsequently added to the assay plates following the manufacturer's protocol. Assay plates were shaken on an orbital shaker for 2 min and incubated at 25° C. for 10 min. Luminescence was then read using a Cytation 5 Cell Imaging Multi-Mode Reader (BioTek).

MV4;11 WT cells = experiment: CellTiter-Glo cell viability, WT MV4;11 cells; format: cell-based; conditions: for IC50 / cytotoxicity to MV4;11 cells (in words): 24 h, CTG
Experimental: as §1

Chain of XPNPEP1 (Q9NQW7 whole entry): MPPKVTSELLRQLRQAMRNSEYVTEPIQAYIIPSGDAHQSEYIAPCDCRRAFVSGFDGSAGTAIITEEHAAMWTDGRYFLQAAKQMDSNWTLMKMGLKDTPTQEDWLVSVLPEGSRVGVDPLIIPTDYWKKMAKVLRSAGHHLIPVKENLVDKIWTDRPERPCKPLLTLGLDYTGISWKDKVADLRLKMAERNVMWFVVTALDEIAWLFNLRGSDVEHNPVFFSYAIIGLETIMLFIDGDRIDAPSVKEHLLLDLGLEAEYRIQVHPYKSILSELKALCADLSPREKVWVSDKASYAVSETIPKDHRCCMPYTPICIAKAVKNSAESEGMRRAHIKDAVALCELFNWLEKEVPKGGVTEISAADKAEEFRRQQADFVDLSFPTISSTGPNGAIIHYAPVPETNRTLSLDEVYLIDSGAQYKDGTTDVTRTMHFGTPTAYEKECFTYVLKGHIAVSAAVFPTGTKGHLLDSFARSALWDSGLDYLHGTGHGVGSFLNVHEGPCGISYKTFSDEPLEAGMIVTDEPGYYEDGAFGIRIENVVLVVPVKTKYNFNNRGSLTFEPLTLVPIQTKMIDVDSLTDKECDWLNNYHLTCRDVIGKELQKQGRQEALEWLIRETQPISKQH
Chain of recombinant human PEPD (P12955 whole entry): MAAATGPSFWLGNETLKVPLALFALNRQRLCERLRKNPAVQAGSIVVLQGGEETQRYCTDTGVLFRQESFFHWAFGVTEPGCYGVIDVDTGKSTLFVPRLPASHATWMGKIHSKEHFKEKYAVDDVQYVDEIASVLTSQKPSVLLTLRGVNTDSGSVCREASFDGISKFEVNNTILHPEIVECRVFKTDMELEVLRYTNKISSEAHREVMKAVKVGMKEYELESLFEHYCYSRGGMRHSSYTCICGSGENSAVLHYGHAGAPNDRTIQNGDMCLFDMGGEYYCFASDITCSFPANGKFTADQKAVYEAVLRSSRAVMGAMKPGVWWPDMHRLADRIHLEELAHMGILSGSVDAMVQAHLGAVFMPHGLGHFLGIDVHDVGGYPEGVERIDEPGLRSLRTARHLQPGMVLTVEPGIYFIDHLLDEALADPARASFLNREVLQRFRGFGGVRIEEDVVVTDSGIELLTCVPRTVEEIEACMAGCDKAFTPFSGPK

SMILES	IC50 (recombinant human PEPD) [µM]	IC50 (XPNPEP1) [µM]	cytotoxicity to MV4;11 cells (in words) (MV4;11 WT cells)	other results
CC(C)C[C@H](NC(=O)[C@@H]1CCCN1C(=O)[C@@H](O)[C@H](N)CC(C)C)C(=O)NCCc1ccccc1 [CQ116, (S)-1-((2S,3R)-3-amino-2-hydroxy-5-methylhexanoyl)-N—((S)-4-methyl-1-oxo-1-(phenethylamino)pentan-2-yl)pyrrolidine-2-carboxamide]	5.7	3.4	–	stability in cell culture supernatants (in words) [1]: completely stable
C[C@H](NC(=O)[C@@H]1CCCN1C(=O)[C@@H]1CCCN1C(=O)[C@@H](O)[C@H](N)Cc1ccccc1)C(N)=O [Apstatin, apstatin, reference compound]	–	18	not cytotoxic at all	IC50 (MV4;11 CASP1-/- cells): > 20 µM; IC50 (MV4;11 WT cells): > 20 µM
CC[C@H](C)[C@H](NC(=O)[C@@H]1CCCN1C(=O)[C@@H](O)[C@H](N)CC(C)C)C(=O)OC [CQ81, Methyl ((2S,3R)-3-amino-2-hydroxy-5-methylhexanoyl)-L-prolyl-L-isoleucinate]	0.84	23	–	IC50 (MV4;11 CASP1-/- cells; Homo sapiens, MV4-11): > 20 µM; IC50 (MV4;11 WT cells; Homo sapiens, MV4-11): 0.6 µM
COC(=O)[C@H](C)NC(=O)[C@@H]1CCCN1C(=O)[C@@H]1CCCN1C(=O)[C@@H](O)[C@H](N)CC(C)C [CQ50, Methyl ((2S,3R)-3-amino-2-hydroxy-5-methylhexanoyl)-L-prolyl-L-prolyl-L-alaninate]	11	8.1	–	IC50 (MV4;11 CASP1-/- cells; Homo sapiens, MV4-11): > 100 µM; IC50 (MV4;11 WT cells; Homo sapiens, MV4-11): 35 µM
COC(=O)[C@H](CC(C)C)NC(=O)[C@@H](O)[C@H](N)Cc1ccccc1 [MeBs, bestatin methyl ester, reference compound]	–	–	–	CASP1-independent cell death (MV4;11 CASP1-/- cells): CASP1-independent cell death
CC(C)C[C@@H](N)[C@H](O)C(=O)N1CCC[C@H]1C(=O)OC1CCCC1 [CQ94, Cyclopentyl ((2S,3R)-3-amino-2-hydroxy-5-methylhexanoyl)-L-prolinate]	–	–	slightly more toxic	PEPD inhibition (in words) (recombinant human PEPD): inhibited PEPD and XPNPEP1 inhibitors similarly; XPNPEP1 inhibition (in words) (XPNPEP1): inhibited PEPD and XPNPEP1 inhibitors similarly
COC(=O)[C@H](Cc1ccccc1)NC(=O)[C@@H](O)[C@H](N)CC(C)C [CQ72, Methyl ((2S,3R)-3-amino-2-hydroxy-5-methylhexanoyl)-L-phenylalaninate]	> 100	96	–	PEPD inhibition (in words) (recombinant human PEPD): very weak PEPD and XPNPEP1 inhibitors; CASP1-independent cell death (MV4;11 CASP1-/- cells): triggered CASP1-independent cell death; XPNPEP1 inhibition (in words) (XPNPEP1): very weak PEPD and XPNPEP1 inhibitors
COC(=O)[C@H](Cc1ccccc1)NC(=O)[C@@H]1CCCN1C(=O)[C@@H](O)[C@H](N)CC(C)C [CQ79, Methyl ((2S,3R)-3-amino-2-hydroxy-5-methylhexanoyl)-L-prolyl-L-phenylalaninate]	0.72	48	–	IC50 (MV4;11 CASP1-/- cells; Homo sapiens, MV4-11): > 20 µM; IC50 (MV4;11 WT cells; Homo sapiens, MV4-11): 0.66 µM

Further lines, with some results ahead:

IC50 (recombinant human PEPD) [µM]	IC50 (XPNPEP1) [µM]	SMILES	cytotoxicity to MV4;11 cells (in words) (MV4;11 WT cells)	other results
4.2	66	COC(=O)[C@@H]1CCCN1C(=O)[C@@H](O)[C@H](N)C1CC1 [CQ62, Methyl ((2S,3R)-3-amino-3-cyclopropyl-2-hydroxypropanoyl)-L-prolinate]	almost completely inactive	–
> 100	38	CC(C)C[C@@H](N)[C@H](O)C(=O)N1CCCC1 [CQ76, (2S,3R)-3-amino-2-hydroxy-5-methyl-1-(pyrrolidin-1-yl)hexan-1-one]	–	overall activity (PEPD/XPNPEP1 inhibition and cytotoxicity, Table 6 and FIG. 2), in words (MV4;11 WT cells): abrogated all activity
0.3	115	COC(=O)[C@@H]1CCCN1C(=O)[C@@H](O)[C@H](N)CCCCO [CQ75]	lost cytotoxicity	PEPD inhibition (in words) (recombinant human PEPD): retained PEPD inhibition
12	33	COC(=O)[C@@H]1CCCN1C(=O)[C@@H](O)[C@H](N)C12CC3CC(CC(C3)C1)C2 [CQ47, Methyl ((2S,3R)-3-(adamantan-1-yl)-3-amino-2-hydroxypropanoyl)-L-prolinate]	almost completely inactive	–
> 100	190	COC(=O)[C@@H]1C[C@H](O)CN1C(=O)[C@@H](O)[C@H](N)CC(C)C [CQ39, Methyl (2S,4S)-1-((2S,3R)-3-amino-2-hydroxy-5-methylhexanoyl)-4-hydroxypyrrolidine-2-carboxylate]	–	overall activity (PEPD/XPNPEP1 inhibition and cytotoxicity, Table 6 and FIG. 2), in words (MV4;11 WT cells): completely inactive
> 100	12	CC(C)C[C@@H](N)[C@H](O)C(=O)N1CCC[C@H]1CNS(C)(=O)=O [CQ53, N—(((S)-1-((2S,3R)-3-amino-2-hydroxy-5-methylhexanoyl)pyrrolidin-2-yl)methyl)methanesulfon-amide]	inactive in cells	–
0.28	53	CC(C)C[C@@H](N)[C@H](O)C(=O)N1CCC[C@H]1C(N)=O [CQ49, (S)-1-((2S,3R)-3-amino-2-hydroxy-5-methylhexanoyl)pyrrolidine-2-carboxamide]	–	overall activity (PEPD/XPNPEP1 inhibition and cytotoxicity, Table 6 and FIG. 2), in words (MV4;11 WT cells): retained similar PEPD/XPNPEP1 inhibition and cytotoxicity as CQ31
1.6	303	CONC(=O)[C@@H]1CCCN1C(=O)[C@@H](O)[C@H](N)CC(C)C [CQ55, (S)-1-((2S,3R)-3-amino-2-hydroxy-5-methylhexanoyl)-N-methoxypyrrolidine-2-carboxamide]	inactive in cells	–
0.29	140	CC(C)CCNC(=O)[C@@H]1CCCN1C(=O)[C@@H](O)[C@H](N)CC(C)C [CQ95, (S)-1-((2S,3R)-3-amino-2-hydroxy-5-methylhexanoyl)-N-isopentylpyrrolidine-2-carboxamide]	–	overall activity (PEPD/XPNPEP1 inhibition and cytotoxicity, Table 6 and FIG. 2), in words (MV4;11 WT cells): retained similar PEPD/XPNPEP1 inhibition and cytotoxicity as CQ31
6.2	67	CC(C)C[C@@H](N)[C@H](O)C(=O)N1CCC[C@H]1c1nnn[nH]1 [CQ99, (2S,3R)-1-((S)-2-(1H-tetrazol-5-yl)pyrrolidin-1-yl)-3-amino-2-hydroxy-5-methylhexan-1-one]	inactive in cells	–
51	57	COC(=O)[C@H](CC(C)C)NC(=O)[C@@H](O)[C@H](N)CC(C)C [CQ52, Methyl ((2S,3R)-3-amino-2-hydroxy-5-methylhexanoyl)-L-leucinate]	–	PEPD inhibition (in words) (recombinant human PEPD): very weak PEPD and XPNPEP1 inhibitors; CASP1-independent cell death (MV4;11 CASP1-/- cells): triggered CASP1-independent cell death; XPNPEP1 inhibition (in words) (XPNPEP1): very weak PEPD and XPNPEP1 inhibitors
